Laboratory results: ChEMBL document CHEMBL1156113, “Synthesis of new sugar derivatives and evaluation of their antibacterial activities against Mycobacterium tuberculosis” (Bioorg Med Chem Lett, 2009)
Values after ≈ are worked out from the molar mass of the structure shown.

Tests used:
Format in all cases: functional
[1] = system: Mycobacterium tuberculosis; test: Antimycobacterial activity against isoniazid, streptomycin-resistant Mycobacterium tuberculosis isolate A-4-25 by agar proportion method
[2] = system: Mycobacterium tuberculosis; test: Antimycobacterial activity against isoniazid, rifampicin-resistant Mycobacterium tuberculosis isolate J-1-19 by agar proportion method
[3] = system: Mycobacterium tuberculosis; test: Antimycobacterial activity against multidrug-resistant Mycobacterium tuberculosis isolate Z-1-4 by agar proportion method
[4] = system: Mycobacterium tuberculosis; test: Antimycobacterial activity against rifampicin-resistant Mycobacterium tuberculosis isolate A-2-4 by agar proportion method
[5] = system: Mycobacterium tuberculosis; test: Antimycobacterial activity against multidrug-resistant Mycobacterium tuberculosis isolate N-4-11 by agar proportion method
[6] = system: Mycobacterium tuberculosis; test: Antimycobacterial activity against multidrug-resistant Mycobacterium tuberculosis isolate U-4-6 by agar proportion method
[7] = system: Mycobacterium tuberculosis; test: Antimycobacterial activity against multidrug-resistant Mycobacterium tuberculosis isolate N-5-2 by agar proportion method
[8] = system: Mycobacterium tuberculosis; test: Antimycobacterial activity against multidrug-resistant Mycobacterium tuberculosis isolate P-1-50 by agar proportion method
[9] = system: Mycobacterium tuberculosis; test: Antimycobacterial activity against streptomycin-resistant Mycobacterium tuberculosis isolate A-4-8 by agar proportion method
[10] = system: Mycobacterium tuberculosis; test: Antimycobacterial activity against multidrug-resistant Mycobacterium tuberculosis isolate A-2-6 by agar proportion method
[11] = system: Mycobacterium tuberculosis; test: Antimycobacterial activity against multidrug-resistant Mycobacterium tuberculosis isolate R-1-38 by agar proportion method
[12] = system: Mycobacterium tuberculosis; test: Antimycobacterial activity against multidrug-resistant Mycobacterium tuberculosis isolate P-4-11 by agar proportion method
[13] = system: Mycobacterium tuberculosis; test: Antimycobacterial activity against multidrug-resistant Mycobacterium tuberculosis isolate K-3-6 by agar proportion method
[14] = system: Mycobacterium tuberculosis; test: Antimycobacterial activity against multidrug-resistant Mycobacterium tuberculosis isolate M-1-32 by agar proportion method
[15] = system: Mycobacterium tuberculosis; test: Antimycobacterial activity against multidrug-resistant Mycobacterium tuberculosis isolate U-2-15 by agar proportion method
[16] = system: Mycobacterium tuberculosis; test: Antimycobacterial activity against multidrug-resistant Mycobacterium tuberculosis isolate Q-4-1 by agar proportion method
[17] = system: Mycobacterium tuberculosis; test: Antimycobacterial activity against isoniazid-resistant Mycobacterium tuberculosis isolate A-2-1 by agar proportion method
[18] = system: Mycobacterium tuberculosis; test: Antimycobacterial activity against isoniazid, rifampicin-resistant Mycobacterium tuberculosis isolate A-2-3 by agar proportion method
[19] = system: Mycobacterium tuberculosis; test: Antimycobacterial activity against streptomycin-resistant Mycobacterium tuberculosis isolate A-3-47 by agar proportion method

Structure (SMILES): CC(=O)N[C@@H]1[C@@H](O)[C@H](O)[C@@H](CO)O[C@H]1SC(=S)N(C)C
- MIC [1]: 6.25 µg/mL (≈ 19.3 µM)
- MIC [2]: 6.25 µg/mL (≈ 19.3 µM)
- MIC [3]: 6.25 µg/mL (≈ 19.3 µM)
- MIC [4]: 6.25 µg/mL (≈ 19.3 µM)
- MIC [5]: 6.25 µg/mL (≈ 19.3 µM)
- MIC [6]: 6.25 µg/mL (≈ 19.3 µM)
- MIC [7]: 1.56 µg/mL (≈ 4.81 µM)
- MIC [8]: 6.25 µg/mL (≈ 19.3 µM)
- MIC [9]: 6.25 µg/mL (≈ 19.3 µM)
- MIC [10]: 6.25 µg/mL (≈ 19.3 µM)
- MIC [11]: 6.25 µg/mL (≈ 19.3 µM)
- MIC [12]: 6.25 µg/mL (≈ 19.3 µM)
- MIC [13]: 6.25 µg/mL (≈ 19.3 µM)
- MIC [14]: 6.25 µg/mL (≈ 19.3 µM)
- MIC [15]: 3.12 µg/mL (≈ 9.62 µM)
- MIC [16]: 6.25 µg/mL (≈ 19.3 µM)
- MIC [17]: 6.25 µg/mL (≈ 19.3 µM)
- MIC [18]: 3.12 µg/mL (≈ 9.62 µM)
- MIC [19]: 6.25 µg/mL (≈ 19.3 µM)
